Data: ChEMBL document CHEMBL5149992, “Discovery, Optimization, and Evaluation of Quinazolinone Derivatives with Novel Linkers as Orally Efficacious Phosphoinositide-3-Kinase Delta Inhibitors for Treatment of Inflammatory Diseases” (J Med Chem, 2021)
Active and inactive are the calls of the source. The calls are words filed in the database; no cut-off is given here.

What was measured:
[1] = target: T1, Phosphatidylinositol 4,5-bisphosphate 3-kinase catalytic subunit delta isoform (Homo sapiens) (UniProt O00329); test: Inhibition of PI3Kdelta (unknown origin) at 0.1 uM relative to control
T1 sequence (whole entry): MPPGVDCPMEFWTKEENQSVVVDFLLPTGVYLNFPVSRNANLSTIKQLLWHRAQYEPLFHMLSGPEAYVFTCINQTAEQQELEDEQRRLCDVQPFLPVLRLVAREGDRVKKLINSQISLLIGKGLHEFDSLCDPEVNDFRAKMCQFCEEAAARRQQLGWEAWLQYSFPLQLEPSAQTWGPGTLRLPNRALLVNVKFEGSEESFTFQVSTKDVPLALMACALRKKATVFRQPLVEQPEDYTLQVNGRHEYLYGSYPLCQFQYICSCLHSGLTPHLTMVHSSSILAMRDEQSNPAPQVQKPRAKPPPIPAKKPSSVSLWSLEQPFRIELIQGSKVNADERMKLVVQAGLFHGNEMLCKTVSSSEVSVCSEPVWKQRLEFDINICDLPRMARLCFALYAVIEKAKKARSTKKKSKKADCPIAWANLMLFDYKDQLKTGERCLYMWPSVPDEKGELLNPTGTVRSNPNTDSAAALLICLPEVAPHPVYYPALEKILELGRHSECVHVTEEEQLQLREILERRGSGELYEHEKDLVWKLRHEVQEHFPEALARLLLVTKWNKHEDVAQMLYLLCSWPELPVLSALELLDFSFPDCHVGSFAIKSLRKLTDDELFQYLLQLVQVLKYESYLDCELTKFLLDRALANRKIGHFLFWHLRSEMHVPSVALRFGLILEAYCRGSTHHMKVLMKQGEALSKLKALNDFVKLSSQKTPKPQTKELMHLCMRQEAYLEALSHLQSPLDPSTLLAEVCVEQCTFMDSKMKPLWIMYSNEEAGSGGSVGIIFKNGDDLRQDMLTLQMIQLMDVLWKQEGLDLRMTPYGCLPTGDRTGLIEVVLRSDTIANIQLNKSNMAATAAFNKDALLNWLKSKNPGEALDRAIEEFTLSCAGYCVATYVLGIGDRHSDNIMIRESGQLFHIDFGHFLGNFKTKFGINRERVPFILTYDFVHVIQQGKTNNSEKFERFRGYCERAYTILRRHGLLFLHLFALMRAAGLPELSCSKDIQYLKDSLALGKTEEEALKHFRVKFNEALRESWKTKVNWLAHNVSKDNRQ

[2] = target: T1, Phosphatidylinositol 4,5-bisphosphate 3-kinase catalytic subunit delta isoform (Homo sapiens); test: Inhibition of PI3Kdelta (unknown origin) at 0.1 uM using phosphatidylinositol as substrate incubated for 30 mins in presence of ATP by HTRF based assay relative to control
[3] = target: T1, Phosphatidylinositol 4,5-bisphosphate 3-kinase catalytic subunit delta isoform (Homo sapiens); test: Inhibition of PI3Kdelta (unknown origin) at 0.01 uM using phosphatidylinositol as substrate incubated for 30 mins in presence of ATP by HTRF based assay relative to control
[4] = target: T2, Phosphatidylinositol 4,5-bisphosphate 3-kinase catalytic subunit delta isoform (Homo sapiens, UniProt O00329); test: Inhibition of PI3Kdelta (unknown origin)
T2 sequence (O00329 whole entry): T1 sequence (whole entry)

[5] = target: Phosphatidylinositol 4,5-bisphosphate 3-kinase catalytic subunit gamma isoform (Homo sapiens, UniProt P48736); test: Inhibition of PI3Kgamma (unknown origin)
Chain of Phosphatidylinositol 4,5-bisphosphate 3-kinase catalytic subunit gamma isoform (Homo sapiens, UniProt P48736) (P48736 whole entry, canonical isoform): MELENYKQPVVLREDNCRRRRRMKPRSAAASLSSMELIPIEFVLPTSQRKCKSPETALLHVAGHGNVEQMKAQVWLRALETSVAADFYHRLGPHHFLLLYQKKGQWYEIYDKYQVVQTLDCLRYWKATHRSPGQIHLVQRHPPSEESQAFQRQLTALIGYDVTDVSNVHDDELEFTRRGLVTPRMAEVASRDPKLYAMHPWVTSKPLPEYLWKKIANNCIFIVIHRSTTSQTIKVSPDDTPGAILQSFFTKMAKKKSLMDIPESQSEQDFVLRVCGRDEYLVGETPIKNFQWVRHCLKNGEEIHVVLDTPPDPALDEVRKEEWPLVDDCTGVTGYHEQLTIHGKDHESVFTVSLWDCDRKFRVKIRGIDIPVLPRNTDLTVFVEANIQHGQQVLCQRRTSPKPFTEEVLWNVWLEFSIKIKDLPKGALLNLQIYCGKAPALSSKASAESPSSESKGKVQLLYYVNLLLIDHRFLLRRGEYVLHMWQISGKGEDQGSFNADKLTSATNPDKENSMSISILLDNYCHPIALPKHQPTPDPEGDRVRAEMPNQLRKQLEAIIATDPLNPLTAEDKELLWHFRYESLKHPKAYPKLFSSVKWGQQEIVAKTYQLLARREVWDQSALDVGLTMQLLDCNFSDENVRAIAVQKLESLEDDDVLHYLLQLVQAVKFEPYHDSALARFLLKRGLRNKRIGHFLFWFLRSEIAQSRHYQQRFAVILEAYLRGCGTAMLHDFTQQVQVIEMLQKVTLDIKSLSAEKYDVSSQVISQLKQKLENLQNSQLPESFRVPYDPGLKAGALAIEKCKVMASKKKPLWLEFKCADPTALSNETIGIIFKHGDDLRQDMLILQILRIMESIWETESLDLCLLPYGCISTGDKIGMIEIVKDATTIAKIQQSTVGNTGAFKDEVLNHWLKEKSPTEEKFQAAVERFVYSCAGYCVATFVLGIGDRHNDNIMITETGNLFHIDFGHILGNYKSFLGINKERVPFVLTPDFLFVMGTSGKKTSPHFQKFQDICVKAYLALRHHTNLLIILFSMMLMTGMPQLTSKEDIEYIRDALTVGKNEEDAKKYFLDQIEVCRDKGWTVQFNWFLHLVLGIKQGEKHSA

[6] = target: T3, Phosphatidylinositol 4,5-bisphosphate 3-kinase catalytic subunit alpha isoform (Homo sapiens, UniProt P42336); test: Inhibition of PI3Kalpha (unknown origin)
T3 sequence (P42336 whole entry, canonical isoform): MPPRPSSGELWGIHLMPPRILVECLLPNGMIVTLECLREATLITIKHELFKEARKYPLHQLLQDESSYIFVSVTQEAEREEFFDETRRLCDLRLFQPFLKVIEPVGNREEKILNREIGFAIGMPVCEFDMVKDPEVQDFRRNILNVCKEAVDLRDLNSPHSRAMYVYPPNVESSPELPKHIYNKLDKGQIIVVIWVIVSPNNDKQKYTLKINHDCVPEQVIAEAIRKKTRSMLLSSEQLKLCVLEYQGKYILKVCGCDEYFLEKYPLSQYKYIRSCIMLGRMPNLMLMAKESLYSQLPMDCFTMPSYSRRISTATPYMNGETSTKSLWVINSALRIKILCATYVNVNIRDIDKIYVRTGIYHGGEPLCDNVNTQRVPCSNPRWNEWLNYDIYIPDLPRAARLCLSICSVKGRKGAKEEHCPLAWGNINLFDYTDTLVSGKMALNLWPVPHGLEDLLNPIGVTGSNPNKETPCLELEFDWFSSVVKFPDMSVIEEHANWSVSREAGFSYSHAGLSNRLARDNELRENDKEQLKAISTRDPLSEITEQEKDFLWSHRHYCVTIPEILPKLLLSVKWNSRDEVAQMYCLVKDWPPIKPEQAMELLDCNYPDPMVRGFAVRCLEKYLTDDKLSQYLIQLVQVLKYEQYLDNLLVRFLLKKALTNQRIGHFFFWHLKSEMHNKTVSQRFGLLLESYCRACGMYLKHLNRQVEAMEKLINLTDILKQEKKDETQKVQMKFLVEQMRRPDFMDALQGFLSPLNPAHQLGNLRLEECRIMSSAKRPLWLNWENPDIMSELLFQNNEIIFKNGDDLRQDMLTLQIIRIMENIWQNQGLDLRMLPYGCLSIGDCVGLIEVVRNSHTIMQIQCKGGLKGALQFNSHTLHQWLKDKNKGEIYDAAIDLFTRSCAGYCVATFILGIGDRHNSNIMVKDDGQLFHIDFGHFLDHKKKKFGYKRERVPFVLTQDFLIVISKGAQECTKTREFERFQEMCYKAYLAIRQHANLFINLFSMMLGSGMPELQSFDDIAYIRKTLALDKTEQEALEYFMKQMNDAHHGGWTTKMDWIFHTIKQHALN

[7] = target: T4, Phosphatidylinositol 4,5-bisphosphate 3-kinase catalytic subunit beta isoform (Homo sapiens, UniProt P42338); test: Inhibition of PI3Kbeta (unknown origin)
T4 sequence (P42338 whole entry, canonical isoform): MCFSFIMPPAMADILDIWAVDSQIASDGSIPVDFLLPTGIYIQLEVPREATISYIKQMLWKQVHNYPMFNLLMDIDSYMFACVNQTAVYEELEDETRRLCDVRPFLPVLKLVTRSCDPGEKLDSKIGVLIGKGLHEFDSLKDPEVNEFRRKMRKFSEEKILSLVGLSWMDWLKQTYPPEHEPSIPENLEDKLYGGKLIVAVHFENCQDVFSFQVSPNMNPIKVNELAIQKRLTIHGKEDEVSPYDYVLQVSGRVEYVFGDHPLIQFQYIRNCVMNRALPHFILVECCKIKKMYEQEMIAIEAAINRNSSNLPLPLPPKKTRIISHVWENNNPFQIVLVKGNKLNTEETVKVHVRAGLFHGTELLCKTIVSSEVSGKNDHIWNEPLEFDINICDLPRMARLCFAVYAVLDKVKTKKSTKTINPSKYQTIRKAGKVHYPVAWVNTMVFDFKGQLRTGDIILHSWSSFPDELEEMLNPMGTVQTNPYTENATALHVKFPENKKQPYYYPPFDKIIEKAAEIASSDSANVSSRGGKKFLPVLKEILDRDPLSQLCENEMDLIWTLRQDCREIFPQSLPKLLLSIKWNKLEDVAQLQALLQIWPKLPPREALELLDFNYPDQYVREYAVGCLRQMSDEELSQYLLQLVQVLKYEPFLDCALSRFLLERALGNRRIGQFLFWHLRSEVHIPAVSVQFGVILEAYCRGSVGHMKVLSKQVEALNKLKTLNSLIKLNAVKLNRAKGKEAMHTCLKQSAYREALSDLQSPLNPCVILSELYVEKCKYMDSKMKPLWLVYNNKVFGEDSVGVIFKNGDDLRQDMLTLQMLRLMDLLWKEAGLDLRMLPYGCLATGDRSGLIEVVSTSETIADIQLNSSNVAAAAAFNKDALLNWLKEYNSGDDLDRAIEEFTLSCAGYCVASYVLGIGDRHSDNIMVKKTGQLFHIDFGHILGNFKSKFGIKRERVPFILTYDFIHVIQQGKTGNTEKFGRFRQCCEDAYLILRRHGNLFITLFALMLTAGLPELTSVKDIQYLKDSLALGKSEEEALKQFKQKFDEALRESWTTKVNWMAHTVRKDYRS

[8] = Toxicity in mouse at 100 mg/kg, po; type: organism-based; conditions: in vivo
[9] = human, microsomes, 10 µM
[10] = in vitro; conditions: human, liver microsomes
[11] = target: T3, Phosphatidylinositol 4,5-bisphosphate 3-kinase catalytic subunit alpha isoform; test: Inhibition of PI3Kalpha in human SK-OV-3 cells assessed as reduction in AKT phosphorylation at S473 residue incubated for 30 mins; type: cell-based
[12] = target: T4, Phosphatidylinositol 4,5-bisphosphate 3-kinase catalytic subunit beta isoform; test: Inhibition of PI3Kbeta in human 786-0 cells assessed as reduction in AKT phosphorylation at S473 residue incubated for 30 mins; type: cell-based
[13] = target: Phosphatidylinositol 4,5-bisphosphate 3-kinase catalytic subunit gamma isoform (Mus musculus, UniProt Q9JHG7); test: Inhibition of PI3Kgamma in c5a-stimulated mouse RAW264.7 cells assessed as reduction in AKT phosphorylation at S473 residue incubated for 30 mins; type: cell-based
Chain of Phosphatidylinositol 4,5-bisphosphate 3-kinase catalytic subunit gamma isoform (Mus musculus, UniProt Q9JHG7) (Q9JHG7 whole entry, canonical isoform): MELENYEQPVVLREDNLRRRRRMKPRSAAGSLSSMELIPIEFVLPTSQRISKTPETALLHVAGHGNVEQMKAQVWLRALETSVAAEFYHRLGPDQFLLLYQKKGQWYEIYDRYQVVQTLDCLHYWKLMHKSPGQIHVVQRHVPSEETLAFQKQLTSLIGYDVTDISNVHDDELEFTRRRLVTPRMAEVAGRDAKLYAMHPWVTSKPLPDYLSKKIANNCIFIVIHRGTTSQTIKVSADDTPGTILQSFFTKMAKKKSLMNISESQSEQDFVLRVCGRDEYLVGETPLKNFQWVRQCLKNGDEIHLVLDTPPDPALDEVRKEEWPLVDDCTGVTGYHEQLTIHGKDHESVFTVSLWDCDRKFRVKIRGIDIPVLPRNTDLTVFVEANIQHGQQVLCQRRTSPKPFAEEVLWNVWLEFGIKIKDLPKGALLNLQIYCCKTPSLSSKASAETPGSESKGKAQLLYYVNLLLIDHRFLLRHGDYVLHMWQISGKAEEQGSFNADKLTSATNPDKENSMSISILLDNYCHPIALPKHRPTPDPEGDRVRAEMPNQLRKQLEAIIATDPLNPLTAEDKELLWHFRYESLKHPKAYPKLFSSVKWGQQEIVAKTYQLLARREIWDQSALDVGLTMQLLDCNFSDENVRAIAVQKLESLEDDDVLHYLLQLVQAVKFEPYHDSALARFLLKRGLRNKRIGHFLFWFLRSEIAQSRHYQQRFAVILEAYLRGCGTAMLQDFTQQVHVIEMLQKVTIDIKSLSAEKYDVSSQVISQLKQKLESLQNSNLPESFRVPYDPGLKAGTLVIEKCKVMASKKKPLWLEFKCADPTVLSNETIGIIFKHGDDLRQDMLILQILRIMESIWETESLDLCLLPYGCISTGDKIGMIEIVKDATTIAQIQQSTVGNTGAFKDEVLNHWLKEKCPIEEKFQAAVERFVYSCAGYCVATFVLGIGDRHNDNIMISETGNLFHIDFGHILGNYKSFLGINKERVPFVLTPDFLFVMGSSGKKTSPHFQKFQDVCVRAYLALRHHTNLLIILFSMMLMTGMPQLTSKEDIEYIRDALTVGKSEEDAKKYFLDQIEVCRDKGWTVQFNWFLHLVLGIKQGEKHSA

[14] = target: T2, Phosphatidylinositol 4,5-bisphosphate 3-kinase catalytic subunit delta isoform; test: Inhibition of PI3Kdelta in anti-IgM-stimulated human Raji cells assessed as reduction in AKT phosphorylation at S473 residue incubated for 30 mins; type: cell-based
[15] = target: T2, Phosphatidylinositol 4,5-bisphosphate 3-kinase catalytic subunit delta isoform; test: Inhibition of PI3Kdelta in anti-IgM-stimulated human whole blood B cell degranulation incubated for 60 mins by flow cytometry; type: tissue-based
[16] = system: H9c2; test: Cytotoxicity against rat H9c2 cells assessed as reduction in cell viability incubated for 72 hrs by CCK-8 assay; type: toxicity, cell-based; conditions: h9c2, 72 h
[17] = system: L929; test: Cytotoxicity against mouse L929 cells assessed as reduction in cell viability incubated for 72 hrs by CCK-8 assay; type: toxicity, cell-based; conditions: l929, 72 h
[18] = system: HEK293; test: Cytotoxicity against HEK293 cells assessed as reduction in cell viability incubated for 72 hrs by CCK-8 assay; type: toxicity, cell-based; conditions: human, hek293, 72 h
[19] = system: L02; test: Cytotoxicity against human L02 cells assessed as reduction in cell viability incubated for 72 hrs by CCK-8 assay; type: toxicity, cell-based; conditions: l02, 72 h
[20] = Elimination half life in Sprague-Dawley rat at 5 mg/kg, po incubated for 5 to 24 hrs by LC-MS/MS analysis; type: ADME, organism-based; conditions: in vivo, time 5-24 hrs, read-out: beta t1/2 (converted)
[21] = Elimination half life in Sprague-Dawley rat at 5 mg/kg, iv incubated for 5 to 24 hrs by LC-MS/MS analysis; type: ADME, organism-based; conditions: in vivo, time 5-24 hrs, read-out: beta t1/2 (converted)
[22] = Volume of distribution at steady state in Sprague-Dawley rat at 5 mg/kg, po incubated for 5 to 24 hrs by LC-MS/MS analysis; type: ADME, organism-based; conditions: in vivo, time 5-24 hrs
[23] = Volume of distribution at steady state in Sprague-Dawley rat at 5 mg/kg, iv incubated for 5 to 24 hrs by LC-MS/MS analysis; type: ADME, organism-based; conditions: in vivo, time 5-24 hrs, read-out: Vdss
[24] = Tmax in Sprague-Dawley rat at 5 mg/kg, po incubated for 5 to 24 hrs by LC-MS/MS analysis; type: ADME, organism-based; conditions: in vivo, time 5-24 hrs
[25] = Tmax in Sprague-Dawley rat at 5 mg/kg, iv incubated for 5 to 24 hrs by LC-MS/MS analysis; type: ADME, organism-based; conditions: in vivo, time 5-24 hrs
[26] = MRT in Sprague-Dawley rat at 5 mg/kg, po incubated for 5 to 24 hrs by LC-MS/MS analysis; type: ADME, organism-based; conditions: in vivo, time 5-24 hrs
[27] = MRT in Sprague-Dawley rat at 5 mg/kg, iv incubated for 5 to 24 hrs by LC-MS/MS analysis; type: ADME, organism-based; conditions: in vivo, time 5-24 hrs
[28] = AUC in Sprague-Dawley rat at 5 mg/kg, po incubated for 5 to 24 hrs by LC-MS/MS analysis; type: ADME, organism-based; set-up: dose 5 mg/kg, time upper 24 hrs, time lower 5 hrs, route po; conditions: in vivo
[29] = AUC in Sprague-Dawley rat at 5 mg/kg, iv incubated for 5 to 24 hrs by LC-MS/MS analysis; type: ADME, organism-based; set-up: time 5-24 hrs, dose 5 mg/kg, route iv; conditions: in vivo
[30] = Oral bioavailability Sprague-Dawley rat at 5 mg/kg incubated for 5 to 24 hrs by LC-MS/MS analysis; type: ADME, organism-based; conditions: in vivo, time 5-24 hrs
[31] = system: Mus musculus; test: Antiarthritic activity in collagen-induced rheumatoid arthritis po dosed DBA1/J mouse model assessed as reduction in disease severity measured once daily for 24 to 27 days; type: functional, organism-based; conditions: dose 5-20 mg/kg, time 24-27 day, DDE = dose-dependent effect
[32] = system: Mus musculus; test: Antiarthritic activity against collagen-induced arthritis DBA1/J mouse model assessed as paw swelling of forelimb at 5 to 20 mg/kg, po measured on day 27; type: functional, organism-based; conditions: dose 5-20 mg/kg, time 27.0 day
[33] = system: Mus musculus; test: Antiarthritic activity against collagen-induced arthritis DBA1/J mouse model assessed as paw swelling of hindlimb at 5 to 20 mg/kg, po measured on day 27; type: functional, organism-based; conditions: dose 5-20 mg/kg, time 27.0 day
[34] = system: Mus musculus; test: Antiarthritic activity against collagen-induced arthritis DBA1/J mouse model assessed as signs of inflammation at 20 mg/kg, po measured after 24 hrs by H and E staining based analysis; type: functional, organism-based
[35] = system: Mus musculus; test: Antiarthritic activity against collagen-induced arthritis DBA1/J mouse model assessed as bone erosion at 20 mg/kg, po measured after 24 hrs by H and E staining based analysis; type: functional, organism-based
[36] = system: Mus musculus; test: Antiarthritic activity against collagen-induced arthritis DBA1/J mouse model assessed as destruction of cartilage at 20 mg/kg, po measured after 24 hrs by Safranin-O staining based microscopic analysis; type: functional, organism-based
[37] = system: Mus musculus; test: Antiarthritic activity in collagen-induced rheumatoid arthritis DBA1/J mouse model assessed as reduction in disease severity at 20 mg/kg, po qd measured once daily for 24 to 27 days; type: functional, organism-based; conditions: time 24-27 day

**Q.** For `N#Cc1c(N)ncnc1N1[C@H](c2nc3cccc(Cl)c3c(=O)n2-c2cccc(OC(F)(F)F)c2)C[C@@H]2CCCC[C@@H]21`, which inhibition [1] is on record?
**A.** 5%

**Q.** Which inhibition [2] does the source give for `N#Cc1c(N)ncnc1N1[C@H](c2nc3cccc(Cl)c3c(=O)n2-c2ccccc2)C[C@@H]2CCCC[C@@H]21` here?
**A.** 43%

**Q.** What about the inhibition [3] of the same compound?
**A.** 10%

**Q.** And the IC50 [4]?
**A.** 90 nM

**Q.** And the IC50 [5]?
**A.** > 1000 nM

**Q.** What about the IC50 [6] of the same compound?
**A.** > 1000 nM

**Q.** What about the IC50 [7] of the same compound?
**A.** > 1000 nM

**Q.** And the Activity [8]?
**A.** Non-Toxic

**Q.** What about the CLH [9] of the same compound?
**A.** 19.8 mL/min/g

**Q.** What about the half-life at 60 h, 10 µM [10] of the same compound?
**A.** 1.17 h

**Q.** What does the source list for `C[C@H]1CC[C@@H](c2nc3cccc(Cl)c3c(=O)n2-c2cccc(F)c2)N1c1ncnc2[nH]cnc12`?
**A.** IC50 [4]: 14 nM; IC50 [5]: 267 nM; IC50 [6]: 4430 nM; IC50 [7]: 375 nM; IC50 [11]: 4360 nM; IC50 [12]: 943 nM; IC50 [13]: 571 nM; IC50 [14]: 24.7 nM; IC50 [15]: 100 nM; Activity [16]: Non-Toxic; Activity [17]: Non-Toxic; Activity [18]: Non-Toxic; Activity [19]: Non-Toxic; half-life [20]: 2.06 h; half-life [21]: 2 h; Vdss [22]: 9.1 L/kg; Vd [23]: 7.16 L/kg; Tmax [24]: 4.67 h; Tmax [25]: 4.8 min; MRT [26]: 5.96 h; MRT [27]: 2.53 h; AUC [28]: 4897.74 ng·h/mL; AUC [29]: 2110.52 ng·h/mL; F [30]: 89.9%; Activity [31]: Dde; Activity [32]: Active; Activity [33]: Active; Activity [34]: Active; Activity [35]: Active; Activity [36]: Active; CLH [9]: 5.2 mL/min/g; half-life at 60 h, 10 µM [10]: 4.44 h

**Q.** What does the source list for `CC[C@H](Nc1ncnc2[nH]cnc12)c1nc2cccc(F)c2c(=O)n1-c1ccccc1` [IDELALISIB]?
**A.** IC50 [13]: 1300 nM; Activity [37]: Active

**Q.** With `N#Cc1c(N)ncnc1N1CC(F)(F)C[C@H]1c1nc2cccc(Cl)c2c(=O)n1-c1ccccc1` as the compound, how does the inhibition [2] read?
**A.** 60%

**Q.** And the inhibition [3]?
**A.** 15%

**Q.** What about the IC50 [4] of the same compound?
**A.** 33 nM

**Q.** And the IC50 [5]?
**A.** > 1000 nM

**Q.** What about the IC50 [6] of the same compound?
**A.** > 1000 nM

**Q.** And the IC50 [7]?
**A.** > 1000 nM

**Q.** What about the Activity [8] of the same compound?
**A.** Toxic

**Q.** What about the CLH [9] of the same compound?
**A.** 8.2 mL/min/g

**Q.** What about the half-life at 60 h, 10 µM [10] of the same compound?
**A.** 2.82 h
